Values joined by “and” are separate entries in the source; they are usually repeats but may differ in a detail not shown here. Equal values may be shown once. “Also recorded” adds a separate entry of the source.
What was measured:
[1] = system: mu, kappa, and delta opioid receptors; assay: Binding and enzyme target profile screen (Eurofins); conditions: competitive binding screen, 10 uM
Experimental: These experiments were performed by an outside vendor (Eurofins, France). […] In each experiment, the respective reference compound was tested concurrently with the test compound to assess the assay reliability. […] Following incubation, the samples were filtered rapidly under vacuum through glass fiber filters presoaked in a buffer and rinsed several times with an ice-cold buffer using a 48-sample or 96-sample cell harvester. The filters were counted for radioactivity in a scintillation counter using a scintillation cocktail.

[2] = Serum and CSF concentrations in monkey (LC-MS/MS); type: in vivo, rhesus monkey (Macaca mulatta); conditions: 0.1 mg kg-1
Experimental: Monkey blood and CSF samples were collected from totally implanted subcutaneous access ports (Access Technologies, Virginia), connected to catheters indwelling in the femoral artery or intrathecal space of the spinal column, respectively. Rodent blood samples and brains were collected immediately following sacrifice at the indicated time points after intraperitoneal injection (10 ml kg^−1) in buffered saline. CSF was immediately frozen on dry ice and stored at −80 °C. Blood samples were allowed to coagulate for 15 min and then centrifuged at 4 °C for 15 min. Serum was collected from the supernatant and stored at a minimum of −30 °C until extraction. To 25 µl of serum, 5 µl of internal standard and 110 µl of methanol were added. Samples were centrifuged for 10 min at 16,200×g at 4 °C and the supernatant was transferred to the autosampler vial for analysis. Brains were cut in half and weighed prior to sample preparation. Half brains were homogenized in 490 µl of 85% ethanol: 15% water containing 0.1% formic acid and 5 µl of internal standard using a polytron homogenizer and centrifuged for 10 min at 16,200×g at 4 °C. […]
Data were acquired using a Nexera XR HPLC (Shimadzu) coupled with a QTRAP 6500 (SCIEX), and was analyzed with Analyst 1.6 (SCIEX). […]
The data were measured using standard curves and quality controls, but it was not validated to ICH guidelines. […]

[3] = system: DREADDs; assay: [18F]JHU37107 PET in D1-DREADD transgenic mice; type: in vivo; conditions: D1-DREADD mice, 0.1 mg kg-1 IP
Experimental: [^18F]JHU37107 was prepared via the no-carrier-added ^18F-fluorination using an FDG Nuclear Interface module (Muenster, Germany). Briefly, 4 mg precursor (8-chloro-11-(4-ethylpiperazin-1-yl)-5H-dibenzo[b,e][1,4]diazepin-2-ol) and 8 mg tris(acetonitrile)cyclopentadienylruthenium(II)hexafluorophosphate (STREM, Boston, MA) were dissolved in ethanol (0.3 mL), the solution was heated at 85 °C for 25 min and evaporated to dryness under a stream of argon gas. The residue was dissolved in DMSO (0.5 mL) and acetonitrile (0.5 mL) and the solution was added to a dry complex of [^18F]fluoride and 9 mg 1,3-bis(2,6-di-i-propylphenyl)-2-chloroimidazolium chloride (STREM). The reaction mixture was heated at 130 °C for 30 min, diluted with mixture of 0.5 mL acetonitrile, 0.5 mL water and 0.03 mL TFA and injected onto a semi-preparative HPLC column (Luna C18, 10 micron, 10 mm × 250 mm) and eluted with 23:77 (v:v) acetonitrile:water (0.1% trifluoroacetic acid) at a flow rate of 10 mL min^−1. The radioactive peak corresponding to [^18F]JHU37107 (tR = 9.9 min) was collected in a reservoir containing 50 mL of water and 3 mL aq 8.4% NaHCO3 solution. The diluted product was loaded onto a solid phase extraction cartridge (Waters Oasis HLB plus light) and rinsed with 10 mL sterile saline. The product was eluted with 1000 µL of ethanol through a sterile 0.2 μm filter into a sterile, pyrogen-free vial and 10 mL saline was added through the same filter. The final product [^18F]JHU37107 was then analyzed by analytical HPLC (Luna C18, 10 micron, 4.6 mm × 250 mm; mobile phase 23:77 (v:v) acetonitrile:water (0.1% trifluoroacetic acid), flow rate of 3 mL min^−1; […] .
Total acquisition time was 60 min.

[4] = target: T1, cortical hM4Di (Homo sapiens, UniProt P08173, A203G/Y113C); assay: [11C]clozapine PET DREADD occupancy in rats; conditions: rat, read-out: occupancy of cortical hM4Di
T1 sequence (P08173 1-479 Y113C/A203G): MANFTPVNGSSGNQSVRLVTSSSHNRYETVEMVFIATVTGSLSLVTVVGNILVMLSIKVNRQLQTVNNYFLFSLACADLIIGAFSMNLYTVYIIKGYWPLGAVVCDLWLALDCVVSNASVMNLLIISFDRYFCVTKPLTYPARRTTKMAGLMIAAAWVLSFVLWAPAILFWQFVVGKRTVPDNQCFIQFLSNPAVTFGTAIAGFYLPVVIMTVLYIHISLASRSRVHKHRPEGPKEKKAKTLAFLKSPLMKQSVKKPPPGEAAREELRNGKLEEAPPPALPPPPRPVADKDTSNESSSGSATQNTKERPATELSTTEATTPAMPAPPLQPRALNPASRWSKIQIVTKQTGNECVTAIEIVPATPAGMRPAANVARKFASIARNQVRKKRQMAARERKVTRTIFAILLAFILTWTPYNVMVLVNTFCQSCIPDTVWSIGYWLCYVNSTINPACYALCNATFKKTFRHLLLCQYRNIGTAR
Experimental: (§1) Animals were anesthetized with isoflurane or a mix of ketamine/xylazine and prepped on a stereotaxic apparatus (Kopf, Germany). […] When indicated, animals were pretreated with vehicle or the indicated drug 10 min before the injection of the PET radiotracer. Total acquisition time was 60 min.
In all cases, the PET data were reconstructed and corrected for dead-time and radioactive decay. All qualitative and quantitative assessments of PET images were performed using the PMOD software environment (PMOD Technologies, Zurich Switzerland). Binding potential BPND (a relative measure of specific binding) was calculated using a reference tissue model using the cerebellum as a reference tissue in rodents. In macaques, the kinetic data were fitted to a two-tissue compartment model and the concentration of parent in plasma was used as an input function, then the volume of distribution ratios compared to cerebellum were calculated to establish BPND. […] Receptor occupancy was calculated using the formula: occupancy = (BPND^0 − BPND^Drug)/BPND^0 × 100, where BPND^0 is the binding potential of the baseline condition and BPND^Drug the binding potential when the animals were pretreated with the drug.

[5] = target: hM3Dq (Homo sapiens, UniProt P20309, A239G/Y149C); assay: [11C]clozapine PET DREADD occupancy in AAV-DREADD mice, hM3Dq; conditions: 0.1 mg kg-1 IP, individual values, listed as J52
Experimental: as §1
(§2) In all cases, the PET data were reconstructed and corrected for dead-time and radioactive decay. All qualitative and quantitative assessments of PET images were performed using the PMOD software environment (PMOD Technologies, Zurich Switzerland). Binding potential BPND (a relative measure of specific binding) was calculated using a reference tissue model using the cerebellum as a reference tissue in rodents. In macaques, the kinetic data were fitted to a two-tissue compartment model and the concentration of parent in plasma was used as an input function, then the volume of distribution ratios compared to cerebellum were calculated to establish BPND. In all cases, the dynamic PET images were coregistered to MRI templates and time-activity curves were generated using predefined volumes of interest (macaques) or manually drawn in rodents and the described analyses were performed. Receptor occupancy was calculated using the formula: occupancy = (BPND^0 − BPND^Drug)/BPND^0 × 100, where BPND^0 is the binding potential of the baseline condition and BPND^Drug the binding potential when the animals were pretreated with the drug.

[6] = target: T2, hM4Di (Homo sapiens, UniProt P08173, A203G/Y113C); assay: [11C]clozapine PET DREADD occupancy in AAV-DREADD mice, hM4Di; conditions: 0.1 mg kg-1 IP, individual values, listed as J52
T2 sequence (P08173 1-479 Y113C/A203G): T1 sequence (P08173 1-479 Y113C/A203G)
Experimental: as §1, §2

hM3Dq, sequence (P20309 whole entry Y149C/A239G): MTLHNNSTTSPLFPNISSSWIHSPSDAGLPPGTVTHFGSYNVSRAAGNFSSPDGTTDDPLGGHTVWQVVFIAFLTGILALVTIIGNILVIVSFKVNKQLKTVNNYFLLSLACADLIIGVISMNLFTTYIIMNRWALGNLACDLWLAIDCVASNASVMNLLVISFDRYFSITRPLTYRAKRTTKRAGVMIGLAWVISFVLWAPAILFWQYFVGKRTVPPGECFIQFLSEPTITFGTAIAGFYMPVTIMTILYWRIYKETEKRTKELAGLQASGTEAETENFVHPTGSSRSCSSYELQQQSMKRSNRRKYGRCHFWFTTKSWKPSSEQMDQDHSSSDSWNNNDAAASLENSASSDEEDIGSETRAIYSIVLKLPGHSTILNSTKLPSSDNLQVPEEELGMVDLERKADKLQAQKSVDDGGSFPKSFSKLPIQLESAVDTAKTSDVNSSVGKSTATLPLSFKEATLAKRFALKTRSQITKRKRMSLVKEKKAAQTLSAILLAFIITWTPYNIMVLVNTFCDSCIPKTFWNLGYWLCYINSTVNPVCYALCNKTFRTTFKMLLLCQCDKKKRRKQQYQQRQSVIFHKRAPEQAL

Question: Which “binding to opioid receptors” value [1] does the source give for `c1ccc2c(c1)N=C(N1CCNCC1)c1ccccc1N2` [C21] here?
Answer: exhibited binding to mu, kappa, and delta opioid receptors; also recorded: binds to opioid receptors

Question: For `CCN1CCN(C2=Nc3cc(Cl)ccc3Nc3c(F)cccc32)CC1` [JHU37160, 8-Chloro-11-(4-ethylpiperazin-1-yl)-4-fluoro-5H-dibenzo[b,e][1,4]diazepine], which CSF concentration [2] is on record?
Answer: below our system’s detection limit

Question: And the serum detection [2]?
Answer: detected in serum

Question: And the “displacement of [18F]JHU37107 PET signal” value [3]?
Answer: displaceable

Question: And the receptor occupancy at 0.1 mg/kg [4]?
Answer: ~80%

Question: What does the source list for `CCN1CCN(C2=Nc3cc(Cl)ccc3Nc3cccc(F)c32)CC1` [JHU37152, 8-Chloro-11-(4-ethylpiperazin-1-yl)-1-fluoro-5H-dibenzo[b,e][1,4]diazepine]?
Answer: displacement of in vivo [11C]clozapine binding, hM3Dq [5]: 25.1963 and 16.746 and 26.3837; displacement of in vivo [11C]clozapine binding, hM4Di [6]: -5.675 and 34.4851 and 23.8214

From paper PMC6788984, “High-potency ligands for DREADD imaging and activation in rodents and monkeys” (Nature Communications, 2019)
